Values joined by “and” are separate entries in the source; they are usually repeats but may differ in a detail not shown here. Identical values can stand only once. Like-named read-outs stand apart in the source and are kept apart here.
How the values were obtained:
[1] = tested on: MCF-7 human mammary carcinoma cell line; type: cell-based
Excerpt: (§1) MXT estrogen-independen mouse mammary carcinoma cell line was obtained from Dr. Gunter Berndhart, University of Regensburg, Germany. All the other cell lines used in the determination of the antiproliferative activity of the compounds of this invention were obtained from the American Type Culture Collection (ATCC).
(§2) For the evaluation of the activity of the analogs, a colorimetric cytotoxicity assay in microtitration plates was used based on quantification of biomass by staining cells with crystal violet, which correlates very well with determination of cell numbers. (Reile et al.; Anal. Biochem. 187, 262-267, 1990; Bernhardt G. et al, J. Cancer Res. Clin. Oncol. (1992), 118, 35-43; Spruss Th. et al, J. Cancer Res. Clin. Oncol 117, 435-443, 1991; Gillies, R. J., Anal. Biochem. 159, 109-113, 1986; Kueng, W. et al.; Anal. Biochem., 182 16-19, 1989.)
(§3) One to two days after seeding cells in 96-well plates the culture medium is exchanged with fresh medium containing the compounds to be tested and fresh medium only for the control cultures. After varying time of incubation, cells are fixed with glutaric dialdehyde and stored under […] at 4° C. until the end of the experiment. Cells are stained with crystal violet and bound stain is extracted with 70% aqueous EtOH. Optical density is measured with EIA Reader (Bio-Tek Instruments) or Biomek 1000 (Beckman) at 590 nm or 600 nm, respectively. Each data point represents the mean value of eight culture wells. T/C values are calculated as T/C=(T-C0)/(C-C0) where T=optical density of treated cultures, C=optical density of control (untreated) cultures, C0 =optical density of cultures at the start of incubation (t=0).
Cells were incubated in IMEM media containing 5% Hl:DCC-FBS (heat inactivated dextran coated charcoal treated fetal bovine serum) on 96 well plates. Relative cell number in treated and control plates was determined by the crystal violet staining method and was expressed as T/C values where T/C=T-C0 /C-C0×100 [T=absorbance of treated cultures, C= absorbance of control cultures, C0 =absorbance of cultures at the start of incubation (t=0). The measured absorbance is proportionate to the cell number.]

[2] = tested on: estrogen independent MXT mouse mammary cancers; assay: Treatment of estrogen independent MXT mouse mammary cancers (KS-49); type: in vivo
Excerpt: In order to compare the tumor inhibitory activity of cytotoxic doxorubicin derivative, Q6 and its targeted cytotoxic peptide conjugate, Q6^14 gL as well as the well known antineoplastic agent, DOX and to determine the optimal way of administration and the nontoxic doses, LH-RH receptor positive MXT (3.2) ovex tumor pieces (1 mm^3) were implanted s. c. in female B6 D2 F1 mice. One day after transplantation the mice were randomly divided into groups of five animals and the treatment started. The compounds were dissolved in 0.1% trifluoroacetic acid (pH 2) and given intraperitoneally.

[3] = tested on: MXT estrogen independent mouse mammary carcinoma cell line; assay: In vitro cytotoxic activity, crystal violet colorimetric assay on MXT; type: cell-based
Excerpt: as §1, §2, §3

[4] = Table 17-1; 3 × 10^-8 M; incubation 70 hr
[5] = Table 17-1; 3 × 10^-8 M; incubation 120 hr
[6] = Table 17-1; 3 × 10^-9 M; incubation 70 hr
[7] = Table 17-1; 3 × 10^-9 M; incubation 120 hr
[8] = Table 17-1; 10^-8 M; incubation 70 hr
[9] = Table 17-1; 10^-8 M; incubation 120 hr
[10] = Table 17-1; 3 × 10^-10 M; incubation 70 hr
[11] = Table 17-1; 3 × 10^-10 M; incubation 120 hr
[12] = Table 17-1; 10^-9 M; incubation 70 hr
[13] = Table 17-1; 10^-9 M; incubation 120 hr

Compound: COc1cccc2c1C(=O)c1c(O)c3c(c(O)c1C2=O)C[C@@](O)(C(=O)CO)C[C@@H]3O[C@H]1C[C@H](N2CCCC(=O)C2)[C@H](O)[C@H](C)O1.O=C(O)C(F)(F)F [Compound Q7, 3'-deamino-3'-(3"-piperidone-1"-yl) doxorubicin]
- T/C Value [1, 4]: 59
- T/C Value [1, 5]: 43
- T/C Value [1, 6]: 96
- T/C Value [1, 7]: 97
- T/C Value [1, 8]: 80
- T/C Value [1, 9]: 70

Compound: COc1cccc2c1C(=O)c1c(O)c3c(c(O)c1C2=O)C[C@@](O)(C(=O)CO)C[C@@H]3OC1CC(N2C=CCC2)C(O)C(C)O1 (some centres unmarked) [Compound Q6, 3'-deamino-3'-(2"-pyrroline-1"-yl)doxorubicin]
- Average survival ([2]; 0.2 nmol/inj. i.p., total 21 nmol (Groups 5 and 9)): 13.0 days
- Average survival ([2]; 0.5 nmol/inj. i.p., 5 inj./week, total 7.5 nmol (Groups 3 and 7)): 19.6 days
- Toxicity ([2]; 1.25 nmol on day 1, 2, 7 and 8): strong toxicity
- Average survival ([2]; 1.25 nmol/inj. i.p., 2 inj./week, day 1, 2, 7 and 8 (Groups 2 and 6)): 17.4 days and 17.5 days
- Average survival ([2]; 0.25 * nmol/inj. i.p. (dose raised day 9 to 12), total 9.5 nmol (Groups 4 and 8)): 14.6 days
- Average final tumor volume ([2]; Group 2, 1.25 nmol on day 1, 2, 7 and 8, at day 16): 1065 mm^3
- T/C Value [1, 6]: -18
- T/C Value [1, 7]: -9
- T/C Value [1, 10]: 50
- T/C Value [1, 11]: 26
- T/C Value [1, 12]: -3
- T/C Value [1, 13]: 2
- T/C Value on MCF-7 Cell Line ([1]; Table 18-1; 3 × 10^-9 M; 70 hr): -18
- T/C Value on MCF-7 Cell Line ([1]; Table 18-1; 3 × 10^-9 M; 120 hr): -9
- T/C Value on MCF-7 Cell Line ([1]; Table 18-1; 10^-9 M; 70 hr): -3
- T/C Value on MCF-7 Cell Line ([1]; Table 18-1; 10^-9 M; 120 hr): 2
- T/C Value on MCF-7 Cell Line ([1]; Table 18-1; 10^-10 M (by column position); 70 hr): 50
- T/C Value on MCF-7 Cell Line ([1]; Table 18-1; 10^-10 M (by column position); 120 hr): 26
- T/C value on MXT cell line ([3]; 3 × 1^-11 M (so in the source), 28 hr): 90
- T/C value on MXT cell line ([3]; 3 × 1^-11 M (so in the source), 69 hr): 52
- T/C value on MXT cell line ([3]; 3 × 10^-10 M, 28 hr): 56
- T/C value on MXT cell line ([3]; 3 × 10^-10 M, 69 hr): -13
- T/C value on MXT cell line ([3]; 10^-10 M, 28 hr): 78
- T/C value on MXT cell line ([3]; 10^-10 M, 69 hr): 6

Compound: COc1cccc2c1C(=O)c1c(O)c3c(c(O)c1C2=O)C[C@@](O)(C(=O)CO)C[C@@H]3O[C@H]1C[C@H](N2C=CCCC2)[C@H](O)[C@H](C)O1.O=C(O)C(F)(F)F [Compound Q8, 3'-deamino-3'-(1",3"-tetrahydropyridine-1"-yl)doxorubicin]
- T/C Value [1, 6]: 69
- T/C Value [1, 7]: 62
- T/C Value [1, 10]: 96
- T/C Value [1, 11]: 99
- T/C Value [1, 12]: 88
- T/C Value [1, 13]: 93

Compound: COc1cccc2c1C(=O)c1c(O)c3c(c(O)c1C2=O)C[C@@](O)(C(=O)CO)C[C@@H]3O[C@H]1C[C@H](N2CCC(=O)C2)[C@H](O)[C@H](C)O1.O=C(O)C(F)(F)F [Compound Q5, 3'-deamino-3'-(3"-pyrrolidone-1"-yl) doxorubicin]
- T/C Value [1, 4]: -28
- T/C Value [1, 5]: -10
- T/C Value [1, 6]: 87
- T/C Value [1, 7]: 67
- T/C Value [1, 8]: 30
- T/C Value [1, 9]: 25

Compound: COc1cccc2c1C(=O)c1c(O)c3c(c(O)c1C2=O)C[C@@](O)(C(=O)CO)C[C@@H]3O[C@H]1C[C@H](N2Cc3ccccc3C2)[C@H](O)[C@H](C)O1.O=C(O)C(F)(F)F [Compound Q3, 3'-deamino-3'-(isoindoline-2"-yl)doxorubicin]
- T/C Value ([1]; Table 17-1, 10^-8 M; incubation 70 hr): -11
- T/C Value ([1]; Table 17-1, 10^-8 M; incubation 120 hr): -29
- T/C Value [1, 4]: 86
- T/C Value [1, 5]: 77
- T/C Value [1, 8]: 118
- T/C Value [1, 9]: 108

Compound: COc1cccc2c1C(=O)c1c(O)c3c(c(O)c1C2=O)C[C@@](O)(C(=O)CO)C[C@@H]3O[C@H]1C[C@H](N2CC=CC2)[C@H](O)[C@H](C)O1.O=C(O)C(F)(F)F [Compound Q4, 3'-deamino-3'-(3"-pyrroline-1"-yl)doxorubicin]
- T/C Value [1, 5]: -5
- T/C Value [1, 6]: 106
- T/C Value [1, 7]: 97
- T/C Value [1, 8]: 72
- T/C Value [1, 9]: 65

Compound: COc1cccc2c1C(=O)c1c(O)c3c(c(O)c1C2=O)C[C@@](O)(C(=O)CO)C[C@@H]3O[C@H]1C[C@H](N2CCCCC2)[C@H](O)[C@H](C)O1 [AN-183, Piperidino-DOX]
- T/C Value [1, 4]: 4
- T/C Value [1, 5]: 0
- T/C Value [1, 6]: 114
- T/C Value [1, 7]: 109
- T/C Value [1, 8]: 70
- T/C Value [1, 9]: 67

Reference: patent US6184374A, “Targeted cytotoxic anthracycline analogs” (priority 1998, dated 2001)
